Experimental data published in PMC12298270, “Development and Validation of a New LC-MS/MS Method for Simultaneous Quantification of Ivacaftor, Tezacaftor and Elexacaftor Plasma Levels in Pediatric Cystic Fibrosis Patients” (Pharmaceuticals, 2025).
Like-named read-outs stand apart in the source and are kept apart here.

Columns and labels:
[1] = Short- and long-term autosampler stability of prepared QC samples at room temperature; assay type: physicochemical; settings: for Stability (%): autosampler; for 9-day autosampler stability: across L-, M- and H-QC levels
Experimental: Both short- and long-term stability were evaluated on prepared QC samples kept at room temperature for a maximum of 9 days. After 24 h from QC sample preparation and first assessment (Time 0), the stability was around 100% for all QC samples. […] Autosampler stability was tested by analyzing IVA, TEZ and ELX concentrations in QCs maintained at room temperature at time 0 (corresponding to preparation of QC samples and to the first measurement) and after 24 h (short-term stability) or 9 days (long-term stability). We also evaluated, on prepared low-, medium- and high-QC samples, the stability following one cycle of freezing (−80 °C) and thawing (after 12 days). To further assess long-term stability, n = 3 T0 and T4 of authentic samples, stored at −80 °C over a period of five months, were randomly chosen and re-analyzed. The percentage difference between the concentration measured at each sampling point and the initial concentration was calculated. Based on ICH guideline M10, a percentage difference below the 15% was considered acceptable.

[2] = Long-term −80 °C stability of authentic patient plasma samples; assay type: physicochemical, human; settings: for Stability, % of the first measurement: n = 3 T0 and T4 patients' samples, −80 °C, five months; for Stability (%) mean ± SD, T0 samples / Stability (%) mean ± SD, T4 samples: patient plasma n = 3, stored at −80 °C, 5 months vs Time 0
Experimental: (§1) We have also evaluated the stability of prepared low-, medium- and high-QC samples following one cycle of freezing (−80 °C) and thawing (after 12 days). The calculated stability for ivacaftor, tezacaftor and elexacaftor was 100–107% after 12 days. Patient samples (n = 3 T0 and T4) were randomly selected and re-analyzed after being stored at −80 °C over a period of five months. Compared to the first measurement (time 0), the stability ranged from 85.48 ± 19.83% (mean ± SD) for IVA T4 to 90.55 ± 2.42% for ELX T0 (Supplementary Table S2). Autosampler stability was tested by analyzing IVA, TEZ and ELX concentrations in QCs maintained at room temperature at time 0 (corresponding to preparation of QC samples and to the first measurement) and after 24 h (short-term stability) or 9 days (long-term stability). We also evaluated, on prepared low-, medium- and high-QC samples, the stability following one cycle of freezing (−80 °C) and thawing (after 12 days). To further assess long-term stability, n = 3 T0 and T4 of authentic samples, stored at −80 °C over a period of five months, were randomly chosen and re-analyzed. The percentage difference between the concentration measured at each sampling point and the initial concentration was calculated. Based on ICH guideline M10, a percentage difference below the 15% was considered acceptable.

[3] = parameters: method as in PMID 38494378; settings: cited from earlier work
[4] = Plasma levels of IVA, TEZ and ELX by LC-MS/MS in pediatric cystic fibrosis patients at steady state on Kaftrio; assay type: in vivo, human; settings: for Cmax at 4 h / AUC(0-t): both sexes, human, plasma, oral; for Cmax at 4 h / Plasma concentration T0 (Ctrough), 25th Percentile / Plasma concentration T0 (Ctrough), 75th Percentile / Plasma concentration T0 (Ctrough), Median: steady state; for Cmax at 4 h: 4 h after morning Kaftrio dose; for Plasma concentration T0 (Ctrough), 25th Percentile / Plasma concentration T0 (Ctrough), 75th Percentile / Plasma concentration T0 (Ctrough), Median: before morning Kaftrio dose
Experimental: The clinical performance of our validated method was tested on n = 25 samples from pediatric patients affected by cystic fibrosis. Table 5 reports plasma concentrations of IVA, TEZ and ELX measured before (T0) and 4 h after (T4) the morning dose assumption of Kaftrio® (corresponding to IVA Tmax). For IVA, the plasma concentration at 12 h (T12) was obtained by using C4h*e^−β(t12−t4), and the AUC0–12h was calculated to assess the systemic exposure within the interval between two doses (Table 5). Thereafter, AUC0–12h values were multiplied by 2 in order to perform a regression analysis of T0 concentrations versus AUC0–24h.
The clinical applicability of our validated method was tested on n = 25 plasma samples from pediatric patients with a median (range) age of 9.5 (7–17) years and affected by cystic fibrosis (CF). These patients (n = 14 males and n = 11 females) were followed-up during the routine clinical practice at Pneumology and Cystic Fibrosis Unit of Bambino Gesù Children’s Hospital, and were concomitantly receiving therapies with pancreatic enzymes, bronchodilators, antibiotics (including carbapenems, macrolides, beta-lactams, lipopeptides, fluoroquinolones) and proton pump inhibitors.
In order to evaluate systemic exposure to each CFTR modulator, drug levels were measured at steady-state by collecting EDTA–whole blood samples before (T0, corresponding to the minimum plasma concentration, Ctrough,) and 4 h after the morning dose intake (T4, corresponding to the maximum concentration, Cmax). After centrifugation at 3500 rcf for 5 min, plasma was recovered from whole blood samples. Plasma samples were collected and stored at −80 °C until analysis.
According to the Kaftrio® summary of product characteristics (SmPC), patients received a morning dose consisting of two ivacaftor 75 mg/tezacaftor, 50 mg/elexacaftor, 100 mg tablets, whereas one ivacaftor 150 mg tablet was taken in the evening (every 12 h).
Elexacaftor/tezacaftor/ivacaftor plasma levels were determined using high-performance liquid chromatography (HPLC) coupled to mass spectrometry (MS/MS). EDTA–whole blood samples were collected before (T0) and 4 h after (T4) morning drug intake. Analysis of Kaftrio® plasma levels was performed at Division of Metabolic Diseases and Drug Biology of Bambino Gesù Children’s Hospital, IRCCS, in Rome (Italy). The liquid chromatography (LC) system consisted of an UHPLC Agilent 1290 Infinity II (Agilent Technologies, Deutschland GmbH, Waldbronn, Germany). Gradient chromatographic separation was performed in reverse phase mode with a Luna Omega 1.60 µm Polar C18 (100 × 2.1 mm) column (Phenomenex) maintained at 40 °C, with mobile phase A (0.1% formic acid (FA) in water) and mobile phase B (0.1% formic acid and 25% of 2-propanol in ACN). The flow rate of mobile phases was 0.4 mL/min. The duration of each chromatographic run was 10.50 min.
The volume injected was 1 μL. Detection of IVA, IVA-d9, TEZ, TEZ-d4, ELX and ELX-d3 was carried out using a 6470 Mass Spectrometry system (Agilent Technologies, Deutschland GmbH, Waldbronn, Germany) equipped with an ESI-JET-STREAM source operating in the positive ion (ESI+) mode. Mass spectrometric conditions were as follows: Gas Temperature 350 °C, Gas Flow 9 L/min, Sheath Gas Temperature 300 °C, Sheath Gas Flow 9 L/min, Capillary 4000 V, Nebulizer 35 psi.
A 10 µL measure of IS working solution with IVA-d9, TEZ-d4 and ELX-d3 was added to 50 µL of plasma or CAL or QC or blank sample in darkened tubes. After vortexing for 5 s, 300 µL of pure ACN were added to each sample. Samples were mixed for 60 s and centrifuged at 13,000 rpm for 9 min at room temperature. Thereafter, 200 µL of supernatant were collected in amber glass vials and injected into the UHPLC-MS/MS system.
Demographic data and PK parameters were analyzed using descriptive statistics. The median with interquartile range (IQR) was used to describe Ctrough levels. […]

[5] = parameters: method as in PMID 40245791; settings: H-QC, after sample preparation; cited from earlier work
[6] = parameters: method as in ref 18 = [18]; 18. U.S. Food and Drug Administration Center for Drug Evaluation and Research: Nda/Bla, Multi-Disciplinary Review and Evaluation, Lumacaftor/Ivacaftor Available online: https://www.accessdata.fda.gov/; settings: Trikafta drug registration documents; cited from earlier work
[7] = parameters: method as in ref 22 = [22]; 22. Kaftrio®, Summary of Product Characteristics (SmPC), European Medicine Agency (EMA) Available online: https://www.ema.europa.eu/en/medicines/human/EPAR/kaftrio (accessed on 3 March 2024); settings: cited from earlier work
[8] = Stability of prepared QC samples after one cycle of freezing (−80 °C) and thawing; assay type: physicochemical; settings: low-, medium- and high-QC samples, thawed after 12 days
Experimental: as §1

[9] = parameters: method as in PMID 36831163; settings: cited from earlier work
[10] = parameters: method as in PMID 36015300; settings: cited from earlier work
[11] = H-QC (18 µg/mL), 24 H vs Time 0
[12] = H-QC (18 µg/mL), Day 9 vs Time 0
[13] = L-QC (0.3 µg/mL), 24 H vs Time 0
[14] = L-QC (0.3 µg/mL), Day 9 vs Time 0
[15] = M-QC (8 µg/mL), Day 9 vs Time 0
[16] = n = 25 pediatric CF patients, read-out: Plasma concentration T4 (Cmax), 25th Percentile
[17] = n = 25 pediatric CF patients, read-out: Plasma concentration T4 (Cmax), 75th Percentile
[18] = n = 25 pediatric CF patients, read-out: Plasma concentration T4 (Cmax), Median
[19] = Kaftrio drug registration documents

With `CC(C)(C)c1cc(C(C)(C)C)c(NC(=O)c2c[nH]c3ccccc3c2=O)cc1O` [IVA, Ivacaftor] the “Stability (%)” value [1, 11] was 101.29%, the “Stability (%)” value [1, 12] was 73.54% and the “Stability (%)” value [1, 13] was 101.51%. For the same molecule, the “Stability (%)” value [1, 14] was 75.75%, the “Stability (%)” value ([1]; M-QC (8 µg/mL), 24 H vs Time 0) was 99.88% and the “Stability (%)” value [1, 15] was 78.27%. For the same molecule, the 9-day autosampler stability ([1]; 9 days from day 0) was 76%, the 9-day autosampler stability ([1]; 9 days from day 0, listed as ivacaftor) was 73.54–78.27% and the “Stability, % of the first measurement” value [2] was “higher than 85%”. The “Stability (%) mean ± SD, T0 samples” value [2] was 86.96 ± 3.98%, the “Stability (%) mean ± SD, T4 samples” value [2] was 85.48 ± 19.83% and the “Back-calculated Ctrough, mean ± 1.96 SD” value [3] was 700 ng/mL. For the same molecule, the Cmax at 4 h [4, 16] was 1070 ng/mL, the Cmax at 4 h [4, 17] was 2430 ng/mL and the Cmax at 4 h [4, 18] was 1490 ng/mL. The AUC(0-t) ([4]; n = 25 pediatric CF patients, C12h estimated as C4h*e^−β(t12−t4), read-out: Measured AUC0–12h, 25th Percentile) was 7930 ng·h/mL, the AUC(0-t) ([4]; n = 25 pediatric CF patients, C12h estimated as C4h*e^−β(t12−t4), read-out: Measured AUC0–12h, 75th Percentile) was 19400 ng·h/mL and the AUC(0-t) ([4]; n = 25 pediatric CF patients, C12h estimated as C4h*e^−β(t12−t4), read-out: Measured AUC0–12h, Median) was 11400 ng·h/mL. The “Back-calculated Ctrough (T0), median (IQR)” value ([4]; from regression equation of AUC0–24h versus Ctrough (y = 27.6 * x + 4.30)) was 0.80 (0.42–1.32) µg/mL, the “Plasma concentration T0 (Ctrough), 25th Percentile” value ([4]; n = 25 pediatric CF patients) was 370 ng/mL and the “Plasma concentration T0 (Ctrough), 75th Percentile” value ([4]; n = 25 pediatric CF patients) was 1340 ng/mL. For the same molecule, the “Plasma concentration T0 (Ctrough), Median” value ([4]; n = 25 pediatric CF patients) was 790 ng/mL, the “Measured AUC0–12h, 25th Percentile” value ([4]; n = 25 pediatric CF patients, C12h estimated as C4h*e^−β(t12−t4)) was 5330 ng·h/mL and the “Remaining % after ten days in the autosampler” value [5] was 88%. The “Ctrough (Cmin), mean ± SD” value [6] was 630 ± 260 ng/mL, the “AUC0–12h, mean ± SD” value [7, 19] was 11700 ± 4010 ng·h/mL and the “Cmax, mean ± SD” value [7, 19] was 1240 ± 340 ng/mL. For the same molecule, the “Stability after one cycle of freezing and thawing” value [8] was 100–107%, the “Ctrough, mean ± SD” value ([9]; adult patients) was 900 ± 370 ng/mL and the “Ctrough, mean ± SD” value ([9]; children) was 710 ± 200 ng/mL.
In the case of `CC(C)(CO)c1cc2cc(NC(=O)C3(c4ccc5c(c4)OC(F)(F)O5)CC3)c(F)cc2n1C[C@@H](O)CO` [TEZ, Tezacaftor], the Tmax [10] is listed as 3 h, the “Stability (%)” value [1, 11] is listed as 101.39% and the “Stability (%)” value [1, 12] is listed as 105.83%. For the same molecule, the “Stability (%)” value [1, 13] was 96.55%, the “Stability (%)” value [1, 14] was 103.79% and the “Stability (%)” value ([1]; M-QC (8 µg/mL), 24 H vs Time 0) was 100.12%. The “Stability (%)” value [1, 15] was 105.32%, the “Stability, % of the first measurement” value [2] was “higher than 85%” and the “Stability (%) mean ± SD, T0 samples” value [2] was 89.35 ± 4.87%. For the same molecule, the “Stability (%) mean ± SD, T4 samples” value [2] was 85.51 ± 11.87%, the “Minimum concentration (Cmin), median (range)” value [3] was 1300 ng/mL and the Cmax at 4 h [4, 16] was 3750 ng/mL. For the same molecule, the Cmax at 4 h [4, 17] was 6320 ng/mL, the Cmax at 4 h [4, 18] was 4520 ng/mL and the “Plasma concentration T0 (Ctrough), 25th Percentile” value ([4]; n = 25 pediatric CF patients) was 720 ng/mL. The “Plasma concentration T0 (Ctrough), 75th Percentile” value ([4]; n = 25 pediatric CF patients) was 1870 ng/mL, the “Plasma concentration T0 (Ctrough), Median” value ([4]; n = 25 pediatric CF patients) was 1370 ng/mL and the “Remaining % after ten days in the autosampler” value [5] was 99.8%. The “Ctrough (Cmin), mean ± SD” value [6] was 2100 ± 820 ng/mL, the “Effect of simultaneous ingestion of fatty food on exposure” value ([7]; Kaftrio SmPC) was “not affected” and the “Stability after one cycle of freezing and thawing” value [8] was 100–107%.
